Where two headings read alike, the source gives them in different places.
Assays:
[1] = test system: peritoneal macrophages; assay: Expression of B7-1, B7-2, CD40 and IA^d on peritoneal macrophages by flow cytometry; type: cell-based, BALB/c mice
Description: The expression of B7-1 and B7-2 was detected on the surface of peritoneal macrophages incubated with different concentrations of Caerulomycin A (0.05-0.1 μg/ml). Peritoneal macrophages were harvested from BALB/c mice inoculated 4 days previously with 2-3 ml of thioglycolate. The cells were washed with BSS. The macrophages were obtained by adhering for 1 h at 37° C. on plastic Petri dishes followed by washing several times in cold BSS. The macrophages (1×10^6) were stimulated with 10 μg/ml of LPS for 24, 48 and 72 h in the presence and absence of Caerulomycin A (0.05-0.1 μg/ml) at 37° C. and 7% CO2. Then the cells were harvested and stained with their respective antibodies. Briefly, the cells were centrifuged (1200×g, 4° C., 5 min) and the supernatant was aspirated. The cells were washed 3× with 1% BSA, 0.1% sodium azide in PBS. In the first step, the cells (1×10^6) were incubated with biotinylated anti-mouse B7-1, CD40 and I-A^d (1 μg/100 μl) Abs for 45 min at 4° C. In the next step cells were stained with streptavidin FITC (0.5 μg/100 μl) or PE conjugated anti-mouse B7-2 (0.5 μg/100 μl) Abs and incubated for 45 min. Usual steps of washing were followed at each step. Finally the cells were washed five times and fixed in paraformaldehyde. The stained cells were acquired on a FACScan as mentioned for CD28/CTLA-4. Since the antigen presenting cells express B7-1 and B7-2, which are the ligands of CTLA-4 and CD28. […] The expression of IA^d was detected on the surface of peritoneal macrophages incubated with different concentrations of Caerulomycin A (0.05-0.1 μg/ml). Peritoneal macrophages were harvested from BALB/c mice inoculated 4 days previously with 2-3 ml of thioglycolate. The cells were washed with BSS. The macrophages were obtained by adhering for 1 h at 37° C. on plastic Petri dishes followed by washing several times in cold BSS. The macrophages (1×10^6) were stimulated with 10 μg/ml of LPS for 24, 48 and 72 h in the presence and absence of Caerulomycin A (0.05-0.1 μg/ml) at 37° C. and 7% CO2. Then the cells were harvested and stained with their respective antibodies. Briefly, the cells were centrifuged (1200×g, 4° C., 5 min) and the supernatant was aspirated. The cells were washed 3× with 1% BSA, 0.1% sodium azide in PBS. In the first step, the cells (1×10^6) were incubated with biotinylated anti-mouse I-A^d (1 μg/100 μl) Abs for 45 min at 4° C. In the next step cells were stained with streptavidin FITC (0.5 μg/100 μl) and incubated for 45 min. Usual steps of washing were followed at each step. Finally the cells were washed five times and fixed in paraformaldehyde. The stained cells were acquired on a FACScan as mentioned for CD28/CTLA-4. […] This may indicate that Caerulomycin A may inhibit the processing and presentation of antigen by APC.

[2] = test system: Th2 clones; assay: Kinetics of the effect on the proliferation of Th2 clones; type: cell-based; conditions: anti-CD3 Ab 0.5 μg/ml, read-out: inhibitory effect on Th2 cells
Description: Th2 clones (5×10^4/well) were stimulated with anti-CD3 Ab (0.5 μg/ml). Caerulomycin A (0.05 μg/ml) was added either at the initiation of the cultures (time 0) or at various time points (4 h-48 h) After 48 h of the cultures, [^3H]-thymidine was added, and its incorporation was measured 12 h later.

[3] = LPS 10 μg/ml, Caerulomycin A 0.05-0.1 μg/ml

`COc1cc(/C=N/O)nc(-c2ccccn2)c1` [Caerulomycin A, (E)-4-methoxy-2,2′-bipyridine-6-carbaldehyde oxime] was tested, and the “display of B7-2” value [1, 3] was “decreased the display”, the “expression of B7-1” value [1, 3] was “enhanced the expression” and the “expression of IA^d” value [1, 3] was “down regulated the expression”. For the same compound, the “expression of CD40” value ([1]; after 72 h) was “Slight increase in the expression”, the inhibition at 0.05 µg/mL ([2]; 0.05 μg/ml added after 42 h) was 56% and the inhibition at 0.05 µg/mL ([2]; 0.05 μg/ml added before 16 h of the initiation of the cultures) was 77 to 90%.
